Source: patent US7396814B2, “Metallopeptide compositions for treatment of sexual dysfunction” (Palatin Technologies, Inc., priority 1995, dated 2008)
Non-standard residues stand in square brackets, D forms with d. *: point of attachment. dPhe(4-Cl) = N[C@H](Cc1ccc(Cl)cc1)C(=O)O; Heptanoyl = CCCCCCC(=O)*; Nle = CCCC[C@H](N)C(=O)O; Bn = c1ccc(C*)cc1

Tests used:
hMC4-R = molecular target: T1, hMC4-R (Homo sapiens, UniProt P32245); experiment: Competitive inhibition binding assay, 125I-NDP-MSH, hMC4-R; settings: 1 μM metallopeptide; 0.4 nM 125I-NDP-MSH; hMC4-R membranes
T1 construct: expressed in transfected cells
Description: (§1) A competitive inhibition binding assay was conducted using membranes prepared from hMC3-R, hMC4-R, hMC5-R, and B-16 mouse melanoma cells (containing MC1-R) using 0.4 nM ^125I-NDP-MSH (0.2 nM for MC1-R) (New England Nuclear, Boston, Mass., USA) in 50 mM HEPES buffer containing 1 mM MgCl2, 2 mM CaCl2, and 5 mM KCl, at pH 7.2. The assay tube also contained a chosen concentration of the metallopeptides of this invention, at a 1 μM concentration, for determining inhibition of the binding of ^125I-NDP-MSH to its receptor. Non-specific binding was measured by complete inhibition of binding of ^125I-NDP-MSH in the assay in the presence of 1 μM α-MSH. Incubation was for 90 minutes at 37° C., after which the assay mixture was filtered and the membranes washed three times with ice cold buffer. The filter was dried and counted in a gamma counter for remaining radioactivity bound to the membranes. 100% specific binding was defined as the difference in radioactivity (cpm) bound to cell membranes in the absence and presence of 1 μM α-MSH. The cpm obtained in the presence of metallopeptides of this invention were normalized with respect to 100% specific binding to determine the percent inhibition of ^125I-NDP-MSH binding. Each assay was conducted in triplicate.

hMC3-R = molecular target: T2, hMC3-R (Homo sapiens, UniProt P41968); experiment: Competitive inhibition binding assay, 125I-NDP-MSH, hMC3-R; settings: 1 μM metallopeptide; 0.4 nM 125I-NDP-MSH; hMC3-R membranes
T2 construct: expressed in transfected cells
Description: as §1

[1] = molecular target: T3, MC1-R (B-16 mouse melanoma cells) (Mus musculus, UniProt Q01727); experiment: Competitive inhibition binding assay, 125I-NDP-MSH, MC1-R; settings: 1 μM metallopeptide; 0.2 nM 125I-NDP-MSH; B-16 mouse melanoma cell membranes
T3 construct: membranes prepared from hMC3-R, hMC4-R, hMC5-R, and B-16 mouse melanoma cells (containing MC1-R); endogenous in cells; host or cells: B-16 mouse melanoma cells
Description: as §1

hMC5-R = molecular target: T4, hMC5-R (Homo sapiens, UniProt P33032); experiment: Competitive inhibition binding assay, 125I-NDP-MSH, hMC5-R; settings: 1 μM metallopeptide; 0.4 nM 125I-NDP-MSH; hMC5-R membranes
T4 construct: expressed in transfected cells
Description: as §1

T2 sequence (P41968 whole entry): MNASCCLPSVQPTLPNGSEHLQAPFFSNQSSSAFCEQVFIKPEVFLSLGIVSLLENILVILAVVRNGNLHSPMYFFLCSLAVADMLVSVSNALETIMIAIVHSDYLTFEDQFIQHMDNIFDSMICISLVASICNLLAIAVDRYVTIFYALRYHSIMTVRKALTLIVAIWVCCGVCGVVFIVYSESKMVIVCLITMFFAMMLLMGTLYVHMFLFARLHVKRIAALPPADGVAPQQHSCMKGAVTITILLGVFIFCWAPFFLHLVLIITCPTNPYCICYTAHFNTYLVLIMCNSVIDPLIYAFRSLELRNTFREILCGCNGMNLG
T1 sequence (P32245 whole entry): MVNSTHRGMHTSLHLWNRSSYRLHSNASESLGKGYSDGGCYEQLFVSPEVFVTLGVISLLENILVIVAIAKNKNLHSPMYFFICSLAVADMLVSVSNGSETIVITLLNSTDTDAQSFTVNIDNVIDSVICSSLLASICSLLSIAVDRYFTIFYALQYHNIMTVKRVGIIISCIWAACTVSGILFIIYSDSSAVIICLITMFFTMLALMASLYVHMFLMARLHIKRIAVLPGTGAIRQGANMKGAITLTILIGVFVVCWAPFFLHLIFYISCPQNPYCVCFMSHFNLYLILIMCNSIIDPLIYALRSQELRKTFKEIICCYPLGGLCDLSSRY
T4 sequence (P33032 whole entry): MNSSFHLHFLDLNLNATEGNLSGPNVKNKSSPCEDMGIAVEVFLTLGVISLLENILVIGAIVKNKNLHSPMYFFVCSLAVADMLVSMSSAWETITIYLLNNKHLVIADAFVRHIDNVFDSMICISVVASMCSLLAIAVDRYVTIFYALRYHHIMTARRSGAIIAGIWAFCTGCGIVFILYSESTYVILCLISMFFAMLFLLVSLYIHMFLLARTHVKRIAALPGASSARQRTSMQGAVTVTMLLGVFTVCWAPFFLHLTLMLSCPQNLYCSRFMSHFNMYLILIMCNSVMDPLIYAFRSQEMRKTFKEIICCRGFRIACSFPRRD
T3 sequence (Q01727 whole entry): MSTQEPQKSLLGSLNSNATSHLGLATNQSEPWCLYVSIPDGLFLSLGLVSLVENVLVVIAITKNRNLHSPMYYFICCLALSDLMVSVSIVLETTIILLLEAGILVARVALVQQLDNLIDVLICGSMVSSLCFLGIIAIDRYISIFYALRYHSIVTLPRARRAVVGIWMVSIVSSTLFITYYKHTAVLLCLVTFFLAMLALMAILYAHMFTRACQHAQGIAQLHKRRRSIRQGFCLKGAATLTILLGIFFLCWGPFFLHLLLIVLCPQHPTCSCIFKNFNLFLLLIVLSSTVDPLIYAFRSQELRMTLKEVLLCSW

Percent Inhibition at 1 μM MC4-R (hMC4-R)	Percent Inhibition at 1 μM MC3-R (hMC3-R)	Percent Inhibition at 1 μM MC1-R [1]	Percent Inhibition at 1 μM MC5-R (hMC5-R)	Substance
23%	0%	14%	9%	Ac-[Nle]AH[dF]CR-OH
37%	0%	18%	12%	Ac-[Nle]AH[dF]RC-OH
27%	3%	26%	23%	Ac-[Nle]AH[dF]RGC-OH
38%	13%	30%	26%	Heptanoyl-S(Bn)[dPhe(4-Cl)]RC-NH2
